According to patent US7148034B2, “Bioactive whey protein hydrolysate” (New Zealand Dairy Board, priority 2001, dated 2006):
Ends that are not written are not given here. Peptide text beside a SMILES is read from it.

The compounds below were run against ACE-I enzyme (Homo sapiens, UniProt P12821) (assay: ACE-I activity in vitro using FAPGG as substrate). Settings: peptides purified by reverse-phase HPLC from 10 kDa UF permeate of Example 1 hydrolysate.
Format: biochemical
Description: ACE-I activity (in vitro) in the dried product was determined using FAPGG as a substrate (Product 305–10 ex Sigma Chemical Corporation, St Louis, Mo., USA) according of the method of D W Cushman & H S Cheung (1971). ACE-I activities are expressed as the amount of material (mg/L) needed to reduce the activity of the ACE-I enzyme by 50%.

ACE-I enzyme, sequence (P12821 30-1306): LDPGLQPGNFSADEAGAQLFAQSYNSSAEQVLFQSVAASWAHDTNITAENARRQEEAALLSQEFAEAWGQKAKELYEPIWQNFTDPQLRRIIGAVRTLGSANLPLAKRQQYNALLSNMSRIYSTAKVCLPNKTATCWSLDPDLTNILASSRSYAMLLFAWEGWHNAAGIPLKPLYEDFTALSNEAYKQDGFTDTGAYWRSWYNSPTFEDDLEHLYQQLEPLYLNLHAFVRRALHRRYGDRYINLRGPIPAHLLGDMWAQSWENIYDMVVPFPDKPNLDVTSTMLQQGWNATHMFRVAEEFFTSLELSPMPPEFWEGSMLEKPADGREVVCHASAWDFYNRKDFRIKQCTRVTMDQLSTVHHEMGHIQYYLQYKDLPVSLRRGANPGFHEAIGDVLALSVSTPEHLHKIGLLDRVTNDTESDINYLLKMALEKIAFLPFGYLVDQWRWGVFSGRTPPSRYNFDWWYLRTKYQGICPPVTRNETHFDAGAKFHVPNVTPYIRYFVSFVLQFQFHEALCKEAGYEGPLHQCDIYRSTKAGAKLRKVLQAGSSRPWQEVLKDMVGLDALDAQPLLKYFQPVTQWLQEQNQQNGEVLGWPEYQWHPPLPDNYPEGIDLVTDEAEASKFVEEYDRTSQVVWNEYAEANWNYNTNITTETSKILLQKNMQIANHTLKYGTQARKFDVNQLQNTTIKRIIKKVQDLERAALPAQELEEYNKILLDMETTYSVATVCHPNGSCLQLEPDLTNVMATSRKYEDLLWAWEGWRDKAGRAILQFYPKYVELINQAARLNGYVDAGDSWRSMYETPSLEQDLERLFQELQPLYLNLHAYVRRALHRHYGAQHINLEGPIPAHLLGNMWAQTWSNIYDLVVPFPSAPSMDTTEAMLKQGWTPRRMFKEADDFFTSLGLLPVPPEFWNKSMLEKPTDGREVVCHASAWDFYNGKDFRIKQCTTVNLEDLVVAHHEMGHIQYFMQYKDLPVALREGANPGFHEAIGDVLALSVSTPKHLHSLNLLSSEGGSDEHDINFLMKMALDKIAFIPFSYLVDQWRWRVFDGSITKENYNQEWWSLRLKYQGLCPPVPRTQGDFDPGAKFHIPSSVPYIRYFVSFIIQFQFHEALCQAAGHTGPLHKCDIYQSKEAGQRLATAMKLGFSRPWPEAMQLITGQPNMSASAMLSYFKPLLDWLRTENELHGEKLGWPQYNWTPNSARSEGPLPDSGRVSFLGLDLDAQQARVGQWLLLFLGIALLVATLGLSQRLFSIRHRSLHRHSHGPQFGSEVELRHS

Row | Compound | IC50 [µM]
1 | C[C@H](NC(=O)[C@@H](N)CO)C(=O)N1CCC[C@H]1C(=O)O [Peptide 1, SAP] (H-Ser-Ala-Pro-OH; N-terminus and C-terminus assumed) | 80.5
2 | CSCC[C@H](N)C(=O)N[C@@H](CCCCN)C(=O)NCC(=O)O [Peptide 2, MKG] (H-Met-Lys-Gly-OH; N-terminus and C-terminus assumed) | 68.8
3 | ALPMH [Peptide 3, ALPMH] | 40.5
4 | LIVTQ [Peptide 4, LIVTQ] | 33.2

The next compounds have a lower IC50 than those just listed; values first:

Row | IC50 [µM] | Compound
5 | 5.36 | LKGYGGVSLPEW [Peptide 7]
6 | 11 | VSLPEW [Peptide 5, VSLPEW]

What follows are compounds tested on Spontaneously hypertensive rats (SHRs) (assay: Acute short term effect on systolic blood pressure (tail cuff)). Settings: 165 mg/kg body weight, oral in jelly, p=0.0021 after 4 hours, p<0.0001 after 8 hours.
Format: in vivo, rat
Description: Blood pressure was measured using a tail cuff monitor and a purpose designed apparatus for measuring the blood pressure of small animals [IITC Inc, 239 Victory Blvd., Woodland Hills, Calif. 91367, USA]. Each time point was the average of 3–5 readings taken within approximately 5–10 minutes.
Spontaneously hypertensive rats (SHRs) were sourced from the Animal Resource Centre, Western Australia.
The test substances were given to each rat on a per kg body weight basis unless otherwise stated. The individual dose for each animal was incorporated into a flavoured jelly, which was readily consumed by the animals.
The three samples evaluated for short tern blood pressure response were a mildly hydrolysed whey protein concentrate (FIG. 2), a mildly hydrolysed whey protein isolate (see FIG. 3) and a synthesised peptide from. Table 1, namely MKG (SEQ ID NO: 2) (see FIG. 4). The WPC was prepared according to the methodology set out in example 1 of WO 99/65326.
Acute or short term effects of agents were determined by treating adult SHRs with the agent and then studying their blood pressure responses over the following hours. The study detects if an agent lowers blood pressure that is already elevated.

Row | Compound | Reduction in systolic blood pressure compared to control rats
7 | CSCC[C@H](N)C(=O)N[C@@H](CCCCN)C(=O)NCC(=O)O [Peptide 2, MKG] (H-Met-Lys-Gly-OH; N-terminus and C-terminus assumed) | much greater reduction in blood pressure
